From patent US10414774B2, “Compound useful for altering the levels of bile acids for the treatment of diabetes and cardiometabolc disease” (Merck Sharp & Dohme Corp., priority 2016, dated 2019)

Target: T1, Human CYP8B1 (Homo sapiens, UniProt Q9UNU6)
T1 sequence (Q9UNU6 1-501): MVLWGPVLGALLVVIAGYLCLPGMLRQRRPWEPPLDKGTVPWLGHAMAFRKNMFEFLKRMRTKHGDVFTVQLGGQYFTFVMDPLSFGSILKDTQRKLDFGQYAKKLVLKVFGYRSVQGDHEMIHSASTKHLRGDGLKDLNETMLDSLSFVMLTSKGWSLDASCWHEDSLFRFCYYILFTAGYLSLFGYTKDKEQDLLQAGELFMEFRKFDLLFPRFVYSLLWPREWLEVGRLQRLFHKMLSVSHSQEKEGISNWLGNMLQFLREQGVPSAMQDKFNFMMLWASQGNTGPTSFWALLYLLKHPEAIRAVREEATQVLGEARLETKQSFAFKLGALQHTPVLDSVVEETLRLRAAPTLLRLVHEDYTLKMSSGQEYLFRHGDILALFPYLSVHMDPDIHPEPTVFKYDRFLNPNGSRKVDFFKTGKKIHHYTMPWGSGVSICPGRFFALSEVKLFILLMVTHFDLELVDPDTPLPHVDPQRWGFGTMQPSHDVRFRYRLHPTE
Assay: Human CYP8B1 Liver Microsome Assay
Settings: Human CYP8B1 IC50, human liver microsomes; substrate 7a-hydroxy-4-cholesten-3-one, NADPH; RapidFire MS detection of 7α,12α-dihydroxy-4-cholesten-3-one
Method: To a 384 well polypropylene plate (Corning 3656), 250 nl of inhibitor in 100% DMSO (1.25% final DMSO concentration) was pre-plated using an Echo liquid handler (Labcyte Inc.). Human liver microsomes (Xenotech) were diluted in of 0.1 M phosphate buffer, pH 7.4, at a concentration of 65 μg/ml and 15 μL was added to the 384 well plate. The plates were incubated at ambient room temperature for 30 minutes. After pre-incubation with inhibitor, the reaction was initiated by adding 5 μl of substrate solution (4.0 μM 7a-hydroxy-4-cholesten-3-one (Toronto Research Chemicals), 2 mM of NADPH (Sigma), 0.1 M phosphate buffer (pH 7.4). The reaction was carried out for 45 minutes at ambient room temperature and was quenched by the addition of 50 μl of acetonitrile+0.1% vol/vol formic acid (FA)+300 nM 7α-hydroxy-4-cholesten-3-one-d7 (Toronto Research Chemicals). The plates were sealed and centrifuged at 3000 rpm for 5 minutes. Plates were loaded onto the Agilent RapidFire RF300 HTMS system, wherein samples were sipped for 600 ms, and the sip sensor detection signals the diversion of sample from the loop onto a C4 solid phase extraction (SPE) cartridge, where salts are washed off for 2500 ms with a mobile phase of water with 0.1% vol/vol FA at a flow rate of 1.5 ml/min. The column path was switched, and the sample was eluted off the cartridge and flowed into the mass spectrometer for 3000 ms with a mobile phase of acetonitrile and 0.1% vol/vol FA at a flow rate of 1.25 ml/min. The aspirator tip was washed separately with water and acetonitrile between sample aspirations (each for 600 ms) to minimize carryover contamination. Mass spectrometry was carried out using a Sciex API4000 triple quadrupole mass spectrometer (Applied Biosystems, Concord, ON, Canada) equipped with electrospray ionization (ESI) operated in the positive-ion mode. The product 7α,12α-dihydroxy-4-cholesten-3-one and internal standard 7α-hydroxy-4-cholsten-3-one-d7 were detected using multiple reaction monitoring (MRM) with Q1/Q3 transitions at m/z 417.3 to 381.3 and m/z 408.3 to 390.3, respectively, with a dwell time of 100 ms and a collision energy of 24 V for each transition. The mass spectrometer used an ESI voltage of 5000 V and a source temperature of 650° C. Extracted ion chromatograms for each transition were integrated and processed using the RapidFire Integrator software. The data for each well were normalized by monitoring product conversion with the ratio of AUCproduct/(AUCinternal standard). The data was then fitted to a four parameter logistic fit using ActivityBase Software to calculate an IC50 of the inhibitor.

Structure (SMILES) | IC50 [nM]
Cc1nc2ccc(C(F)F)cc2c(N2CCC(C(=O)N3CCn4c(nnc4C(F)(F)F)C3)CC2)c1C#N [Example 55, 6-(difluoromethyl)-2-methyl-4-(4-(3-(trifluoromethyl)-5,6,7,8-tetrahydro-[1,2,4]triazolo[4,3-a]pyrazine-7-carbonyl)piperidin-1-yl)quinoline-3-carbonitrile] | 78
C[C@@H]1CN(c2c(C#N)cnc3ncc(Br)cc23)CC[C@@H]1C(=O)N1CCn2c(nnc2C(F)(F)F)C1 [Example 30, 6-bromo-4-[(3S,4S)-3-methyl-4-{[3-(trifluoromethyl)-5,6-dihydro[1,2,4]triazolo[4,3-a]pyrazin-7(8H)-yl]carbonyl}piperidin-1-yl]-1,8-naphthyridine-3-carbonitrile] | 30
C[C@@H]1CN(c2c(C#N)cnc3c(F)c(OC(F)F)ccc23)CC[C@@H]1C(=O)N1CCn2c(nnc2C(F)(F)F)C1 [Example 36, 7-(difluoromethoxy)-8-fluoro-4-[(3S,4S)-3-methyl-4-{[3-(trifluoromethyl)-5,6-dihdyro[1,2,4]triazolo[4,3-a]pyrazin-7(8H)-yl]carbonyl}piperidin-1-yl]quinoline-3-carbonitrile] | 0.4
C[C@@H]1CN(c2c(C#N)cnc3nc(C(F)(F)F)ccc23)CC[C@@H]1C(=O)N1CCn2c(nnc2C(F)(F)F)C1 [Example 21, 4-[(3S,4S)-3-methyl-4-{[3-(trifluoromethyl)-5,6-dihydro[1,2,4]triazolo[4,3-a]pyrazin-7(8H)-yl]carbonyl}piperidin-1-yl]-7-(trifluoromethyl)-1,8-naphthyridine-3-carbonitrile] | 4.81
N#Cc1cnc2ccc(Cl)cc2c1N1CC[C@@]2(C(=O)N3CCn4c(nnc4C(F)(F)F)C3)C[C@H]2C1 (single isomer, unassigned) [Example 81b] | 1930
C[C@@H]1CN(c2c(C#N)cnc3c(C(F)F)cc(Cl)cc23)CC[C@@H]1C(=O)N1CCn2c(nnc2C(F)(F)F)C1 [Example 3, 6-chloro-8-(difluoromethyl)-4-[(3S,4S)-3-methyl-4-{[3-(trifluoromethyl)-5,6-dihydro[1,2,4]triazolo[4,3-a]pyrazin-7(8H)-yl]carbonyl}piperidin-1-yl]quinoline-3-carbonitrile] | 21
N#Cc1cnc2ccc(Cl)cc2c1N1CCC(C(=O)N2CCc3cn[nH]c3C2)CC1 [Example 108, 6-chloro-4-[4-(1,4,5,7-tetrahydro-6H-pyrazolo[3,4-c]pyridin-6-ylcarbonyl)piperidin-1-yl]quinoline-3-carbonitrile] | 142
CO[C@H]1CN(c2c(C#N)cnc3ccc(Cl)cc23)CCC1C(=O)N1CCn2c(nnc2C(F)(F)F)C1 (stereo in doubt) [Example 72d, 6-chloro-4-[(3R,4R)-3-methoxy-4-{[3-(trifluoromethyl)-5,6-dihydro[1,2,4]triazolo[4,3-a]pyrazin-7(8H)-yl]carbonyl}piperidin-1-yl]quinoline-3-carbonitrile] | 6140
COc1ccc2c(N3CCC(C(=O)N4CCn5c(nnc5C(F)(F)F)C4)CC3)c(C#N)cnc2c1 [Example 44, 7-methoxy-4-(4-{[3-(trifluoromethyl)-5,6-dihydro[1,2,4]triazolo[4,3-a]pyrazin-7(8H)-yl]carbonyl}piperidin-1-yl)quinoline-3-carbonitrile] | 32
C[C@@H]1CN(c2c(C#N)cnc3c(Cl)cccc23)CC[C@@H]1C(=O)N1CCn2c(nnc2C(F)(F)F)C1 [Example 14, 8-chloro-4-[(3S,4S)-3-methyl-4-{[3-(trifluoromethyl)-5,6-dihydro[1,2,4]triazolo[4,3-a]pyrazin-7(8H)-yl]carbonyl}piperidin-1-yl]quinoline-3-carbonitrile] | 1.7
N#Cc1cnc2ccc(Cl)cc2c1N1CCC(C(=O)N2CCc3c(C4CC4)n[nH]c3C2)CC1 [Example 107, 6-chloro-4-{4-[(3-cyclopropyl-1,4,5,7-tetrahydro-6H-pyrazolo[3,4-c]pyridin-6-yl)carbonyl]piperidin-1-yl}quinoline-3-carbonitrile] | 5.6
N#Cc1cnc2cc(OCC3CC3)ccc2c1N1CCC(C(=O)N2CCn3c(nnc3C(F)(F)F)C2)CC1 [Example 68, 7-(cyclopropylmethoxy)-4-(4-{[3-(trifluoromethyl)-5,6-dihydro[1,2,4]triazolo[4,3-a]pyrazin-7(8H)-yl]carbonyl}piperidin-1-yl)quinoline-3-carbonitrile] | 0.43
COc1ccc2c(N3C[C@@H](C)N(C(=O)N4CCn5c(nnc5C(F)(F)F)C4)[C@@H](C)C3)c(C#N)cnc2c1 [Example 83b, 4-((3S,5R)-3,5-dimethyl-4-(3-(trifluoromethyl)-5,6,7,8-tetrahydro-[1,2,4]triazolo[4,3-a]pyrazine-7-carbonyl)piperazin-1-yl)-7-methoxyquinoline-3-carbonitrile] | 987
Cc1nc2ccc(Cl)cc2c(N2CC[C@H](C(=O)N3CCn4cccc4C3)[C@H](C)C2)c1C#N [Example 91, 6-chloro-4-[(3S,4S)-4-(3,4-dihydropyrrolo[1,2-a]pyrazin-2(1H)-ylcarbonyl)-3-methylpiperidin-1-yl]-2-methylquinoline-3-carbonitrile] | 5.8
CO[C@H]1CN(c2c(C#N)cnc3ccc(Cl)cc23)CC[C@H]1C(=O)N1CCn2c(nnc2C(F)(F)F)C1 [Example 72c, 6-chloro-4-[(3R,4R)-3-methoxy-4-{[3-(trifluoromethyl)-5,6-dihydro[1,2,4]triazolo[4,3-a]pyrazin-7(8H)-yl]carbonyl}piperidin-1-yl]quinoline-3-carbonitrile] | 2210
C[C@@H]1CN(c2c(C#N)cnc3cc(-c4ccccc4)ccc23)CC[C@@H]1C(=O)N1CCn2c(nnc2C(F)(F)F)C1 [Example 90, 4-((3S,4S)-3-methyl-4-(3-(trifluoromethyl)-5,6,7,8-tetrahydro-[1,2,4]triazolo[4,3-a]pyrazine-7-carbonyl)piperidin-1-yl)-7-phenylquinoline-3-carbonitrile] | 0.2
Cc1nc2ccc(C3CC3)cc2c(N2CCC(C(=O)N3CCn4c(nnc4C(F)(F)F)C3)CC2)c1C#N [Example 53, 6-cyclopropyl-2-methyl-4-(4-(3-(trifluoromethyl)-5,6,7,8-tetrahydro-[1,2,4]triazolo[4,3-a]pyrazine-7-carbonyl)piperidin-1-yl)quinoline-3-carbonitrile] | 76
CC[C@@H]1CN(c2c(C#N)cnc3c(F)c(OC)ccc23)CC[C@@H]1C(=O)N1CCn2c(nnc2C(F)(F)F)C1 [Example 74b, 4-[(3S,4S)-3-ethyl-4-{[3-(trifluoromethyl)-5,6-dihydro[1,2,4]triazolo[4,3-a]pyrazin-7(8H)-yl]carbonyl}piperidin-1-yl]-8-fluoro-7-methoxyquinoline-3-carbonitrile] | 2.1
C[C@@H]1CN(c2c(C#N)cnc3c(F)c(F)ccc23)CC[C@@H]1C(=O)N1CCn2c(nnc2C(F)(F)F)C1 [Example 8, 7,8-difluoro-4-[(3S,4S)-3-methyl-4-{[3-(trifluoromethyl)-5,6-dihydro[1,2,4]triazolo[4,3-a]pyrazin-7(8H)-yl]carbonyl}piperidin-1-yl]quinoline-3-carbonitrile] | 1.3
CC(C)COc1ccc2c(N3CCC(C(=O)N4CCn5c(nnc5C(F)(F)F)C4)CC3)c(C#N)cnc2c1 [Example 69] | 0.42
